Results: US20050232924A1, “Antibodies and/or conjugates thereof which bind to the amino terminal fragment of urokinase, compositions and uses thereof” (Attenuon LLC, priority 2003, published 2005)

How the values were obtained:
MDA-MB-231 cells [1] = test: Distribution of Dox by fluorescence microscopy; format: cell-based, human; conditions: 1.6 μM, 24 h; FIG. 14
Description: To further characterize the ATN-291-Dox conjugates the distribution of Dox was monitored by fluorescence microscopy. MDA-MB-231 cells grown on glass chamber slides were incubated with either 1.6 μM Dox or 1.6 μM ATN-291-Dox for 24 h under the same conditions used for the MTT assay. Following incubation, the supernatant was removed and the cells washed extensively with PBS. Cells were fixed in paraformaldehyde, mounted and observed by fluorescence microscopy.

MDA-MB-231 cells [2] = test: MTT proliferation assay; format: cell-based, human; conditions: 10 μM; FIG. 13A
Description: The ability of ATN-291-Dox to inhibit proliferation of MDA-MB-231 cells was tested in an MTT assay. […] A dose titration was performed with the ATN-291-Dox conjugate. As shown in FIG. 10B the conjugate inhibited proliferation with an IC-50 of ˜1.6 μM.

COc1cccc2c1C(=O)c1c(O)c3c(c(O)c1C2=O)C[C@@](O)(C(=O)CO)C[C@@H]3O[C@H]1C[C@H](N)[C@H](O)[C@H](C)O1 [Dox, doxorubicin]
cellular localization of Dox fluorescence (MDA-MB-231 cells [1]): primarily localized to the nucleus of treated cells
effect on cell proliferation (MDA-MB-231 cells [2]): significantly inhibited proliferation
